Reference: publication PMC5071857, “A unique peptide deformylase platform to rationally design and challenge novel active compounds” (Scientific Reports, 2016)
Where two headings read alike, the source gives them in different places.

Tests used:
[1] = target: T1, SaPDF (Streptococcus agalactiae serotype III, UniProt Q8E378, S2A); assay: biochemical; settings: for Ki: SaPDF KI, no pre-incubation, assay initiated by addition of enzyme, 40 nM SaPDF, 37 °C; for SaPDF KI/KI*app: enhancement potency (slow tight-binding)
T1 construct: the recombinant protein contains all residues of the 204 amino acids mature protein; made in house; host or cells: E. coli Rosetta 2(DE3)pLysS
T1 sequence (Q8E378 whole entry S2A): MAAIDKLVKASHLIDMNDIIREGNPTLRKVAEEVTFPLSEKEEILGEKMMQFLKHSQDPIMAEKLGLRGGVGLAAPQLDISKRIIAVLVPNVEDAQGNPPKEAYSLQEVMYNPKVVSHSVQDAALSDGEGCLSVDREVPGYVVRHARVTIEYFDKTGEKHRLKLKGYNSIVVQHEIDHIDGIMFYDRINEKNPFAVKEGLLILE
Description: (§1) Enzymatic activity was measured by a spectrophotometric assay where peptide deformylase activity is coupled to that of formate dehydrogenase. The formate released by the deformylation reaction is used by FDH to convert NAD in NADH, the production of which being measured over time at 340 nm and controlled temperature (37 °C). The 200 μL reaction mixture contained 50 mM HEPES-NaOH pH7.5, 12 mM NAD^+, 4.5 U/mL FDH, 1 mM NiCl2 and PDF enzyme (either 40 nM SaPDF or 10 nM EcPDF or 100 nM AtPDF1B) previously diluted in presence of 0.1 mg/mL BSA. The reaction was started by addition of 1–6 mM Fo-Met-Ala-Ser. Kinetics parameters (kcat, Km) were derived from iterative non-linear least square fits using the Michaelis-menten equation based on the experimental data (Sigma-Plot, Kinetics module).
(§2) 1/KI*app is the slope of the v0/vi curve in function of compound concentration, where v0 and vi are the initial reaction rates in absence and presence of compound, respectively.
(§3) Determination of KI values was performed with a slightly modified protocol: reaction was started by addition of enzyme instead of Fo-Met-Ala-Ser, the latter being directly added to the mixture containing increasing concentrations of each compound. No pre-incubation of enzyme in presence of compound was done. 1/KI is the slope of the v0/vi curve in function of compound concentration, where v0 and vi are the initial reaction rates in absence and presence of compound respectively.

[2] = target: T2, AtPDF1B (Arabidopsis thaliana, UniProt Q9FUZ2); assay: PDF inhibition, formate dehydrogenase-coupled spectrophotometric assay (AtPDF1B); assay type: biochemical; settings: no pre-incubation, assay initiated by addition of enzyme; 100 nM AtPDF1B; 37 °C
T2 construct: made in house
T2 sequence (Q9FUZ2 83-273): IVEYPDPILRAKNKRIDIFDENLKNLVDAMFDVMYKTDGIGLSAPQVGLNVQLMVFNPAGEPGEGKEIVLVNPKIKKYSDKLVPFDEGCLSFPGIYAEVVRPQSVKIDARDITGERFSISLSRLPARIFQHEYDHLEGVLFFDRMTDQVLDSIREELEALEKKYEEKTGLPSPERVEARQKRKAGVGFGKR

[3] = target: T1, SaPDF; assay: biochemical; settings: SaPDF KI*app, PDFI pre-incubated with enzyme 10 min at 37 °C, started by 2 mM Fo-Met-Ala-Ser; 40 nM SaPDF
[4] = target: T2, AtPDF1B; assay: PDF inhibition, formate dehydrogenase-coupled spectrophotometric assay (AtPDF1B); assay type: biochemical; settings: for IC50 / Ki: 100 nM AtPDF1B; for IC50: 2 mM Fo-Met-Ala-Ser, 10 min pre-incubation at 37 °C; for Ki: PDFI pre-incubated with enzyme 10 min at 37 °C, started by 2 mM Fo-Met-Ala-Ser, read-out: AtPDF1B KI*app; for AtPDF1B KI/KI*app: enhancement potency (slow tight-binding)
Description: as §1, §2, §3

[5] = system: E. coli AG100; assay: MIC by microdilution, E. coli AG100; assay type: cell-based; settings: 18 h at 37 °C, average of three assays; for MIC: Escherichia coli, AG100, without PMBN; for MIC AG100: with PMBN at 1/5 of its MIC
Description: (§4) Two E. coli strains, one B. subtilis strain, one S. aureus strain, one E. faecalis strain, one S. agalactiae strain and three Enterobacter aerogenes strains previously described were used. Briefly, AG100 was an E. coli wild type strain and AG100A its acrAB^- derivative. EA289 was a Kan^s derivative of an E. aerogenes multi-drug resistant (MDR) clinical isolate overexpressing AcrAB-TolC efflux pumps, and EA294 and EA298 its acrAB^- and tolC^- derivatives respectively. Strains were routinely grown at 37 °C on Luria-Bertani (LB) agar or in Mueller-Hinton II broth (MH), supplemented with kanamycine (50 μg.mL^−1) for AG100A, EA294 and EA298.
(§5) MIC values of antibiotics were determined by the microdilution method in liquid MH media in microplates in the absence or presence of chemosensitizers/modulators (e.g. PMBN, PAβN), as previously described. Permeabilization, blocking of efflux pumps, and isolates with different levels of porin or efflux expression were used to assess the involvement of the membrane barrier in antibiotic activity.
(§6) Susceptibilities were determined in 96-wells microplates with an inoculum of 2 × 10^5 cfu in 200 μL of MH broth containing two-fold serial dilutions of each antibiotics or compounds. Molecules were tested alone or in combination with other molecules in equimolar ratio. MICs were realized in the absence and in the presence of a membrane permeabilizer, the polymyxine B nonapeptide (PMBN) used at 51.2 mg/L (1/5 or 1/10 of its direct MIC previously determined). Actinonin and ciprofloxacin were used as internal antibiotic reference. […] Each test was systematically performed in triplicate. The average of three independent assays is presented in μg/mL in the respective tables.

[6] = target: T3, EcPDF (Escherichia coli, UniProt P0A6K3); assay: PDF inhibition, formate dehydrogenase-coupled spectrophotometric assay (EcPDF); assay type: biochemical; settings: for Ki: 10 nM EcPDF; for EcPDF KI/KI*app: enhancement potency (slow tight-binding)
T3 construct: made in house
T3 sequence (P0A6K3 whole entry): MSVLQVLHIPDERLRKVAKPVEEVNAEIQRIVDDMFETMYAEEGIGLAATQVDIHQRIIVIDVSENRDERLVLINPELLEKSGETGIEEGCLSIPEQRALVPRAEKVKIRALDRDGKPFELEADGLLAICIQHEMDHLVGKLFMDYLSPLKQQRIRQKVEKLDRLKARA
Description: as §1, with “The” for “Enzymatic activity was measured by a spectrophotometric assay where peptide deformylase activity is coupled to that of formate dehydrogenase. The”
as §2, §3

[7] = system: E. coli AG100A (AcrAB- derivative); assay: MIC by microdilution, E. coli AG100A; assay type: cell-based; settings: for MIC: Escherichia coli, 18 h, read-out: MIC AG100A; for MIC AG100A: with PMBN at 1/5 of its MIC, 18 h at 37 °C, average of three assays
Description: as §4, §5, §6

[8] = system: S. aureus SA113; assay: MIC, S. aureus SA113; assay type: cell-based; settings: Staphylococcus aureus
Description: as §4, §5, §6

[9] = system: E. faecalis EFA 103.214; assay: MIC, E. faecalis EFA 103.214; assay type: cell-based; settings: Enterococcus faecalis, EFA103.214, read-out: MIC E. faecalis EFA 103.214
Description: as §4, §5, §6

[10] = system: E. aerogenes Ea294, Ea289 derivative AcrAB-; assay: MIC by microdilution, E. aerogenes Ea294; assay type: cell-based, Enterobacter aerogenes; settings: for MIC Ea294: +PMBN at 1/5 of its MIC, average of three assays; for MIC: Klebsiella aerogenes, 18 h, read-out: MIC Ea294
Description: as §4, §5, §6

[11] = system: E. aerogenes Ea298, Ea289 derivative tolC-; assay: MIC by microdilution, E. aerogenes Ea298; assay type: cell-based, Enterobacter aerogenes; settings: for MIC Ea298: +PMBN at 1/5 of its MIC, average of three assays; for MIC: Klebsiella aerogenes, 18 h, read-out: MIC Ea298
Description: as §4, §5, §6

[12] = system: E. aerogenes Ea289, MDR strain; assay: MIC by microdilution, E. aerogenes Ea289; assay type: cell-based, Enterobacter aerogenes; settings: for MIC Ea289: +PMBN at 1/5 of its MIC, average of three assays; for MIC: Klebsiella aerogenes, 18 h, read-out: MIC Ea289
Description: as §4, §5, §6

[13] = EcPDF KI*app, PDFI pre-incubated with enzyme 10 min at 37 °C, started by 2 mM Fo-Met-Ala-Ser
[14] = EcPDF KI, no pre-incubation, assay initiated by addition of enzyme, 37 °C

Compound	IC50 [1] [nM]	Ki [1] [nM]	SaPDF KI/KI*app [1]	Ki [3] [nM]	IC50 [4] [nM]	Ki [4] [nM]	MIC [5] [µg/mL]	MIC AG100 [5] [µg/mL]	IC50 [6] [nM]	Ki [6, 13] [nM]	Ki [6, 14] [nM]	EcPDF KI/KI*app [6]	MIC [7] [µg/mL]	MIC AG100A [7] [µg/mL]	MIC Ea294 [10] [µg/mL]	MIC [10] [µg/mL]	MIC Ea298 [11] [µg/mL]	MIC [11] [µg/mL]	MIC Ea289 [12] [µg/mL]	MIC [12] [µg/mL]	further results
O=C(Cc1c[nH]c2ccc(Br)cc12)NO [AB47]	63 ± 6	62 ± 3	1	73 ± 5	360 ± 31	400 ± 35	> 64	64	37 ± 5	39 ± 2	47 ± 2	1	64	32							Ki [2]: 455 ± 89 nM; AtPDF1B KI/KI*app [4]: 1
CCCCC(CC(=O)NO)c1nc(-c2ccc(C(F)(F)F)cc2)no1 (stereo not drawn) [AT011]	128 ± 32	400 ± 20	1	430 ± 39	6000	5000	> 64	8	215 ± 17	333 ± 13			32	4	16	128	16	128	64	> 128	MIC [8]: > 64 µg/mL; MIC [9]: > 64 µg/mL
CCCC[C@H](CC(=O)NO)c1nc(Cc2ccc(OC(F)(F)F)cc2)no1 [AT013]	11 ± 1	70 ± 5	1	51 ± 3	500 ± 15	303 ± 12	> 64	16	78 ± 11	80 ± 10	73 ± 12	1	32	4	16	> 128	16	128	64	> 128	MIC [8]: > 64 µg/mL; MIC [9]: > 64 µg/mL
CCCC[C@H](CC(=O)NO)c1nc(Cc2coc3ccccc23)no1 [AT015]	20 ± 3	166 ± 12	1	122 ± 13	300 ± 12	1100	> 64	16	17 ± 2	10 ± 2	35 ± 5	3	32	2	16	> 128	8	128	128	> 128	MIC [8]: > 64 µg/mL; MIC [9]: > 64 µg/mL
CCCCC(CC(=O)NO)c1nc(Cc2ccc(C(=O)OC)cc2)no1 (stereo not drawn) [AT018]	20 ± 1	38 ± 6	2	18 ± 1	650 ± 20	833 ± 10	> 64	64	20 ± 2	12 ± 1	49 ± 3	4	> 64	16							Ki [2]: 1110 ± 100 nM; AtPDF1B KI/KI*app [4]: 1
O=C(O)c1cn(C2CC2)c2cc(N3CCNCC3)c(F)cc2c1=O [Ciprofloxacin, ciprofloxacin, reference compound]															8	16	4	8	64	64	
CC(C)(C)OC(=O)N[C@@H](Cc1ccccc1)CN(O)C=O [RAS358]	150 ± 12	1430 ± 125	3	454 ± 29	251 ± 15	400 ± 37			110 ± 10	164 ± 40	833 ± 30	5									Ki [2]: 2000 ± 150 nM; AtPDF1B KI/KI*app [4]: 5
